Test results published in PMC4907692, “Engineering vanilloid-sensitivity into the rat TRPV2 channel” (eLife, 2016).

Columns and labels:
Type in all cases: cell-based
[1] = biological target: T1, TRPV1 triple mutant that left S512 intact (Rattus norvegicus, UniProt O35433, E570Q/M547L/T550L); assay: Two-electrode voltage-clamp in Xenopus oocytes, TRPV1 triple mutant with S512 intact; details: 100 nM RTx
T1 construct: expressed in transfected cells; host or cells: Xenopus oocytes (cRNA injection)
Text: (§1) To further investigate the putative vanilloid binding pocket in TRPV1, we inspected the cryo-EM structure of TRPV1, looking for residues that are located nearby to the putative RTx density (Figure 1B; regions/residues highlighted in yellow) and that differ between TRPV1 and TRPV2 channels (Figure 3—figure supplement 1; regions highlighted in magenta). […] To quantify the contribution of each of these residues to TRPV1 channel activation by RTx under our experimental conditions, we mutated each to the corresponding residue in TRPV2. We then expressed each construct in oocytes and used the two electrode voltage-clamp technique to study activation by RTx and by the non-specific TRPV channel activator 2-APB. We recorded time courses for channel activation by each agonist while stepping the membrane potential from −60 to +60 mV every 3 s from a holding potential of 0 mV using an external recording solution containing 100 mM KCl (internal K^+ concentration in a healthy oocyte is 100 mM) (Figure 3A, left). We also recorded current-voltage (I-V) relations by stepping over a wider range of voltages in the absence and presence of activators, or in the presence of ruthenium red (RR), a non-specific inhibitor of TRP channels (Figure 3A, right). […]

TRPV2 F472S/Q530E = biological target: T2, TRPV2 F472S/Q530E (Rattus norvegicus, UniProt Q9WUD2, F472S/Q530E); assay: Two-electrode voltage-clamp in Xenopus oocytes, TRPV2 F472S/Q530E; details: 100 nM RTx
T2 construct: expressed in transfected cells; host or cells: Xenopus oocytes (cRNA injection)

TRPV2 QM [2] = biological target: T3, TRPV2 QM (Rattus norvegicus, UniProt Q9WUD2, F472S/L507M/L510T/Q530E); assay: Single channel inside-out patch recording of TRPV2 QM in HEK293 cells; details: 100 nM RTx, patch containing a single channel, recording of approximately 8 min
T3 construct: expressed in transfected cells; host or cells: Xenopus oocytes (cRNA injection)
T3 sequence (Q9WUD2 1-761 F472S/L507M/L510T/Q530E): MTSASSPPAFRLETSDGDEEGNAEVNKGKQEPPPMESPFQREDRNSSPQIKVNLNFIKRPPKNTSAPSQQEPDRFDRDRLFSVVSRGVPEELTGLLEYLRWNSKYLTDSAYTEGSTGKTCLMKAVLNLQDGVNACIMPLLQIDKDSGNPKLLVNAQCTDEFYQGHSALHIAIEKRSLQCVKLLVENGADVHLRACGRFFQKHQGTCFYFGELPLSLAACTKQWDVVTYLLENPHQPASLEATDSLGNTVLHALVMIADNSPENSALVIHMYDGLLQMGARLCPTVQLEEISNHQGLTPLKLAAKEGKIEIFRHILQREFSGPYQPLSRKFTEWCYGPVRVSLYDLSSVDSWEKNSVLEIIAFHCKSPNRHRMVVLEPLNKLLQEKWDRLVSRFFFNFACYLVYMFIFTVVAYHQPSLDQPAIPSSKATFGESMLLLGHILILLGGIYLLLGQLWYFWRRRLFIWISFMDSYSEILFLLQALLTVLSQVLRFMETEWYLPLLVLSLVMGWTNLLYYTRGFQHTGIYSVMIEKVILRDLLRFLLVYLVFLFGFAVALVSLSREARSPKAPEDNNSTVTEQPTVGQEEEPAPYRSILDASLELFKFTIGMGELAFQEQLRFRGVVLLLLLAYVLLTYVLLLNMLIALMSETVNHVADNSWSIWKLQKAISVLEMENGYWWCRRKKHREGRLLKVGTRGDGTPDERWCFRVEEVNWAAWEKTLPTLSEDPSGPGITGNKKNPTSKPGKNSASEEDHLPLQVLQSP

TRPV1 S512F/M547L = biological target: T4, TRPV1 S512F/M547L (Rattus norvegicus, UniProt O35433, M547L/S512F); assay: Two-electrode voltage-clamp in Xenopus oocytes, TRPV1 S512F/M547L; details: 100 nM RTx
T4 construct: expressed in transfected cells; host or cells: Xenopus oocytes (cRNA injection)
Text: as §1

[3] = biological target: T5, TRPV1 QM (S512F, M547L, T550L, E570Q) (Rattus norvegicus, UniProt O35433, E570Q/M547L/S512F/T550L); assay: Two-electrode voltage-clamp in Xenopus oocytes, TRPV1 QM; details: 100 nM RTx
T5 construct: expressed in transfected cells; host or cells: Xenopus oocytes (cRNA injection)
Text: as §1

TRPV2 QM [4] = biological target: T3, TRPV2 QM; assay: Two-electrode voltage-clamp in Xenopus oocytes, TRPV2 QM; details: 100 nM RTx
Text: as §1

WT TRPV2 = biological target: T6, WT TRPV2 (Rattus norvegicus, UniProt Q9WUD2); assay: Two-electrode voltage-clamp in Xenopus oocytes, WT TRPV2; details: 100 nM RTx
T6 construct: expressed in transfected cells; host or cells: Xenopus oocytes (cRNA injection, pGEM-HE)
Text: as §1

T2 sequence (Q9WUD2 whole entry F472S/Q530E): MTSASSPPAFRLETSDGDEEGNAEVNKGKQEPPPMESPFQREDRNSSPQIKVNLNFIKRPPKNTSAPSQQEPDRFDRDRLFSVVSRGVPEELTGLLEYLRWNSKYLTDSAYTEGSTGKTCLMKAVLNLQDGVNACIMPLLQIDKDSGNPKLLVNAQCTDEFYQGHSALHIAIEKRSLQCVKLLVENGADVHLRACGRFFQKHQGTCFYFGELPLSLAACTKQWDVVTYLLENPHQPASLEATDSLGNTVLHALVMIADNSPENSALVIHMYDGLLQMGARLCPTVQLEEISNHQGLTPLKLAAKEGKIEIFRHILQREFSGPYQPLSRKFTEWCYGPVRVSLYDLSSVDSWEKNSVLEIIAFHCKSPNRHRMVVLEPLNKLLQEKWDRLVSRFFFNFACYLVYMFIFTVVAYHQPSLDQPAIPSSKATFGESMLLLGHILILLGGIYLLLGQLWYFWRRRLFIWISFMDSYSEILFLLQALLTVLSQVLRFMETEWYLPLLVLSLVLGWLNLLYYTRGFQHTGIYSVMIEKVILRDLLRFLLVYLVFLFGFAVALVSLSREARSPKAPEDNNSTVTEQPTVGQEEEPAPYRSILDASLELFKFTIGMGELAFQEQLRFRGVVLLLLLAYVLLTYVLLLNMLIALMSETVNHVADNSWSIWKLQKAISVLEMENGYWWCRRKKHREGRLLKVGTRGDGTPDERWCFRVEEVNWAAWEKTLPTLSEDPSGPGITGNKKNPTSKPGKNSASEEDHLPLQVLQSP
T5 sequence (O35433 whole entry S512F/M547L/T550L/E570Q): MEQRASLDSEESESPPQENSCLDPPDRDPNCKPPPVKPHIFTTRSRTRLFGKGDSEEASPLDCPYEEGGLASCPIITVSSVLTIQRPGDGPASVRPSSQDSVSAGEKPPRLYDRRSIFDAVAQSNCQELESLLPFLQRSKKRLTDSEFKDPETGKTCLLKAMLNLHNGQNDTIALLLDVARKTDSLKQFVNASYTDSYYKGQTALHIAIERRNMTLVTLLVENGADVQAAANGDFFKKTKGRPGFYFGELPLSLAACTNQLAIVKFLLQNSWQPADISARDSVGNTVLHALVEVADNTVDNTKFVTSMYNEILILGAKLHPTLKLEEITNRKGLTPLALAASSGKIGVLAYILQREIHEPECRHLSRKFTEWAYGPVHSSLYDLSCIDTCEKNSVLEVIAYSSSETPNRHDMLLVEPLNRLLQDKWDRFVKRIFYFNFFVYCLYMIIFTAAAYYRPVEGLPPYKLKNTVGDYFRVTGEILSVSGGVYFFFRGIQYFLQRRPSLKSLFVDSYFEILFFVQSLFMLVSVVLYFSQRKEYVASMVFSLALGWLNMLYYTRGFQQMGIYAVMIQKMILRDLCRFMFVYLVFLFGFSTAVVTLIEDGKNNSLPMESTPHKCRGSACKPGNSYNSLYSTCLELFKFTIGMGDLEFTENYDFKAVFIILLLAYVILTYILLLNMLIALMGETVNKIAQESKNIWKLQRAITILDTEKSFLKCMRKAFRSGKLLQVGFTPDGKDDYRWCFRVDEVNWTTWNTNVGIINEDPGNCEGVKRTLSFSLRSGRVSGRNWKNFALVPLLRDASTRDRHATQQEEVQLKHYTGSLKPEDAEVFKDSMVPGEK
T1 sequence (O35433 whole entry M547L/T550L/E570Q): as the sequence (O35433 whole entry S512F/M547L/T550L/E570Q) above, with F512S counted along it
T4 sequence (O35433 whole entry S512F/M547L): as the sequence (O35433 whole entry S512F/M547L/T550L/E570Q) above, with L550T, Q570E counted along it
T6 sequence (Q9WUD2 whole entry): as the sequence (Q9WUD2 whole entry F472S/Q530E) above, with S472F, E530Q counted along it

C=C(C)[C@]12C[C@@H](C)[C@@]34O[C@](Cc5ccccc5)(O[C@@H]1[C@@H]3C=C(COC(=O)Cc1ccc(O)c(OC)c1)C[C@]1(O)C(=O)C(C)=C[C@@H]41)O2 [RTx, resiniferatoxin]
channel activation by RTx [1]: retained sensitivity
channel activation by RTx (TRPV2 F472S/Q530E): unresponsive
open probability (Po) (TRPV2 QM [2]): ~1
channel activation by RTx (TRPV1 S512F/M547L): lost sensitivity
channel activation by RTx [3]: completely lost sensitivity
channel activation by RTx (TRPV2 QM [4]): robustly activated
channel activation by RTx (WT TRPV2): completely insensitive
